Assay results from ChEMBL document CHEMBL1201862, “PubChem BioAssay data set” (2004).
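Growth conditions: 96-well plates. Treatment: test compound, 48 hours, 5 concentrations. Analysis: linear interpolation between bracketing concentrations; unreached endpoints set to highest concentration. GI50: concentration for 50% inhibition of growth.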 Activity calls are given as the source filed them. No stated cut-off is given here; in the data, active = GI50 up to about 1.1 µM and inactive = higher.

Assays:
Experiment in all cases: growth of human tumour cells (NCI), 48 h
DMS-114 = tested on: DMS-114
DLD-1 = tested on: DLD-1
HOP-18 = tested on: HOP-18
SNB-78 = tested on: SNB-78
LXFL 529 = tested on: LXFL 529
KM-20L2 = tested on: KM-20L2
XF498 = tested on: XF498
DMS-273 = tested on: DMS-273
RXF 631 = tested on: RXF 631

Structure (SMILES)	GI50 (DMS-114)	GI50 (DLD-1)	GI50 (HOP-18)	GI50 (SNB-78)	GI50 (LXFL 529)	GI50 (KM-20L2)	GI50 (XF498)	GI50 (DMS-273)	GI50 (RXF 631)
CCCCNC1=C(C(=O)OCC)/C(=N/NC(=O)c2ccccc2O)CO1	36.7 µM (inactive)	18.2 µM (inactive)	62.2 µM (inactive)	6.93 µM (inactive)	38 µM (inactive)	> 100 µM (inactive)	> 100 µM (inactive)		
CCOC(=O)c1cc2c(nc1N)-c1ncccc1CC2	8.95 µM (inactive)	52.7 µM (inactive)	> 100 µM (inactive)	> 100 µM (inactive)	50.7 µM (inactive)	37.2 µM (inactive)		43.5 µM (inactive)	> 100 µM (inactive)
CC1CCC(=O)NCCCCC(=O)N1 (stereo unspecified)	> 100 µM (inactive)	> 100 µM (inactive)		> 100 µM (inactive)	> 100 µM (inactive)	> 100 µM (inactive)		> 100 µM (inactive)	
O=C(c1cc2ccccc2o1)N(Cc1ccccc1)c1ccccc1	19.3 µM (inactive)	22.8 µM (inactive)	30.5 µM (inactive)	63.1 µM (inactive)	30.8 µM (inactive)	17.3 µM (inactive)	23.3 µM (inactive)	30.8 µM (inactive)	26.9 µM (inactive)
CCOP(=O)(C/C(O)=C1\C(=O)C(CCCCNC(=O)OC(C)(C)C)N(Cc2ccccc2)C1=O)OCC (stereo unspecified)	> 100 µM (inactive)	> 100 µM (inactive)	80.5 µM (inactive)		> 100 µM (inactive)	> 100 µM (inactive)		> 100 µM (inactive)	
CN1CCCNCCN(CCc2ccccn2)CCCN(C)CC1	> 42.6 µM (inactive)	> 88.1 µM (inactive)	> 100 µM (inactive)	> 100 µM (inactive)	> 75.3 µM (inactive)	> 100 µM (inactive)	> 100 µM (inactive)	27.8 µM (inactive)	> 100 µM (inactive)
CCN(CCCl)CCNc1c2ccccc2nc2ccc(OC)cc12	0.675 µM (active)	0.46 µM (active)	2.7 µM (inactive)	0.891 µM (active)	0.237 µM (active)	0.448 µM (active)	0.891 µM (active)	0.294 µM (active)	0.425 µM (active)
CC(=O)CCCCCCCCCCCC[C@@H]1CC[C@H](C)[C@H](O)N1	> 100 µM (inactive)	> 100 µM (inactive)	> 100 µM (inactive)	> 100 µM (inactive)	> 100 µM (inactive)	65.2 µM (inactive)	> 100 µM (inactive)	> 100 µM (inactive)	
CN1CCc2c1nc(-c1ccc([N+](=O)[O-])cc1)c1c2N(C)CC1	32 µM (inactive)	46.3 µM (inactive)	0.16 µM (active)	> 100 µM (inactive)	> 100 µM (inactive)	> 100 µM (inactive)	> 100 µM (inactive)		> 100 µM (inactive)
Cc1n(CC(C)C)c2c([n+]1C)C(=O)c1ccccc1C2=O	< 0.0161 µM (active)	0.0813 µM (active)	0.565 µM (active)	0.403 µM (active)	< 0.0375 µM (active)	0.0383 µM (active)	0.252 µM (active)	< 0.0484 µM (active)	
NNC(=O)C(=O)N/N=C(\CCCC(=O)Nc1ccc(Cl)cc1)CC(=O)c1ccc(F)cc1	> 100 µM (inactive)	> 100 µM (inactive)	52.8 µM (inactive)	> 100 µM (inactive)	67.1 µM (inactive)	7.31 µM (inactive)	> 100 µM (inactive)		> 100 µM (inactive)
